In patent publication US20240279227A1, “FUSED HETEROCYCLIC DERIVATIVES” (Janssen Sciences Ireland Unlimited Company, priority 2021, published 2024):

Key:
[1] = Cytotoxicity, ATPlite Luminescence Assay; format: cell-based, human; conditions: human, HepG2 or HepG2.117 cells, 3-days incubation unless marked with *, ATPlite viability
Procedure, shortened: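 Viability after compound treatment is read as ATP luminescence. Exposure lasts 3 or 4 days.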

HBV = assay: Anti-HBV activity in HepG2.117 cell line (intracellular HBV DNA, real-time PCR); format: cell-based, hepatitis B virus; conditions: HepG2.117 cells, HBV replication induced, 3 days of treatment, intracellular HBV DNA by real-time PCR
Procedure, shortened: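 HepG2.117 cells (Tet-off, doxycycline-free HBV replication) induced for HBV replication, then exposed to serially diluted compound for 3 days. Intracellular HBV DNA quantified by real-time PCR with HBV-specific primers and probe.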

[2] = Human liver microsome stability; format: in vitro ADME; conditions: human, pooled human liver microsomes, pH 7.4, pooled human liver microsomes 0.5 mg/mL, 1 μM compound, NADPH 1 mM, pH 7.4, 37° C., 0-60 min; read-out: HLM Metabolism t1/2
Procedure, shortened: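 Pooled human liver microsomes (0.5 mg/mL) incubated at 37 °C with 1 μM compound in 0.1 M phosphate pH 7.4, 1 mM MgCl2; 1 mM NADPH starts reaction. Samples quenched in acetonitrile at 0–60 min, analysed by LC-MS against internal standard; half-life from slope of ln peak-area ratio versus time.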

[3] = Hepatitis B virus, HepG2.117, 72 h

Compound	CC50 [1]	EC50 (HBV)	half-life at 1 μM [2]	EC50 (HBV; [3])
CNC(=O)[C@@H]1CN(C(C)c2cnc(C(F)(F)F)nc2)C(=O)c2c3c(nn21)C[C@@H](C)N(C(=O)c1ccc(Cl)c(C(F)(F)F)c1)C3 (single isomer, unassigned) [Compound 43A, (3R,7S)-2-(4-Chloro-3-(trifluoromethyl)benzoyl)-N,3-dimethyl-10-oxo-9-((R*)-1-(2-(trifluoromethyl)pyrimidin-5-yl)ethyl)-1,2,3,4,7,8,9,10-octahydropyrido[4′,3′:3,4]pyrazolo[1,5-a]pyrazine-7-carboxamide]	> 50 µM	0.61 µM	> 3 h	–
CNC(=O)[C@@H]1CN(C(C)c2nc(C(F)(F)F)cs2)C(=O)c2c3c(nn21)C[C@@H](C)N(C(=O)c1ccc(Cl)c(Cl)c1)C3 (single isomer, unassigned) [Compound 44A, (3R,7S)-2-(3,4-Dichlorobenzoyl)-N,3-dimethyl-10-oxo-9-((R*)-1-(4-(trifluoromethyl)thiazol-2-yl)ethyl)-1,2,3,4,7,8,9,10-octahydropyrido[4′,3′:3,4]pyrazolo[1,5-a]pyrazine-7-carboxamide]	> 50 µM	–	> 3 h	0.12 µM
CNC(=O)[C@@H]1CN(C(C)c2ccnc(C(F)(F)F)c2)C(=O)c2c3c(nn21)C[C@@H](C)N(C(=O)c1ccc(Cl)c(Cl)c1)C3 (single isomer, unassigned) [Compound 9B, (3R,7S)-2-(3,4-Dichlorobenzoyl)-N,3-dimethyl-10-oxo-9-((S*)-1-(2-(trifluoromethyl)pyridin-4-yl)ethyl)-1,2,3,4,7,8,9,10-octahydropyrido[4′,3′:3,4]pyrazolo[1,5-a]pyrazine-7-carboxamide]	> 50 µM	–	> 3 h	0.061 µM
CNC(=O)[C@@H]1CN(C(C)c2ccc(C(C)(C)O)nc2)C(=O)c2c3c(nn21)C[C@@H](C)N(C(=O)c1ccc(Cl)c(Cl)c1)C3 (single isomer, unassigned) [Compound 3B, (3R,7S)-2-(3,4-Dichlorobenzoyl)-9-((S*)-1-(6-(2-hydroxypropan-2-yl)pyridin-3-yl)ethyl)-N,3-dimethyl-10-oxo-1,2,3,4,7,8,9,10-octahydropyrido[4′,3′:3,4]pyrazolo[1,5-a]pyrazine-7-carboxamide]	> 50 µM	–	> 3 h	0.051 µM
C[C@@H]1Cc2nn3c(c2CN1C(=O)c1ccc(Cl)c(C#N)c1)C(=O)N([C@H](C)c1ccc(OC(F)F)cc1)C[C@H]3C(=O)N(C)C [Compound 27A, (3R,7S)-2-(4-Chloro-3-cyanobenzoyl)-9-((R)-1-(4-(difluoromethoxy)phenyl)ethyl)-N,N,3-trimethyl-10-oxo-1,2,3,4,7,8,9,10-octahydropyrido[4′,3′:3,4]pyrazolo[1,5-a]pyrazine-7-carboxamide]	> 50 µM	–	> 3 h	0.031 µM
CNC(=O)[C@@H]1CN(C(C)c2ccc(-n3cncn3)cn2)C(=O)c2c3c(nn21)C[C@@H](C)N(C(=O)c1ccc(Cl)c(Cl)c1)C3 (single isomer, unassigned) [Compound 40A, (3R,7S)-9-((R*)-1-(5-(1H-1,2,4-Triazol-1-yl)pyridin-2-yl)ethyl)-2-(3,4-dichlorobenzoyl)-N,3-dimethyl-10-oxo-1,2,3,4,7,8,9,10-octahydropyrido[4′,3′:3,4]pyrazolo [1,5-a]pyrazine-7-carboxamide]	> 50 µM	0.28 µM	> 3 h	–
CNC(=O)[C@@H]1CN(C(C)c2ccc(C)nn2)C(=O)c2c3c(nn21)C[C@@H](C)N(C(=O)c1ccc(Cl)c(Cl)c1)C3 (single isomer, unassigned) [Compound 1B, (3R,7S)-2-(3,4-Dichlorobenzoyl)-N,3-dimethyl-9-((S*)-1-(6-methylpyridazin-3-yl)ethyl)-10-oxo-1,2,3,4,7,8,9,10-octahydropyrido[4′,3′:3,4]pyrazolo[1,5-a]pyrazine-7-carboxamide]	> 50 µM	–	> 3 h	0.38 µM
